The source of these data is ChEMBL document CHEMBL1201862, “PubChem BioAssay data set” (2004).

Molecules are shown by their SMILES. The source made the active and inactive calls.

Series [1] concerns the target T1, Sentrin-specific protease 8 (Homo sapiens, UniProt Q96LD8).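 Further: luminescence read-out of SENP8 inhibition, dose-response confirmation following an ultra-high-throughput screen.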
T1 sequence (Q96LD8 whole entry): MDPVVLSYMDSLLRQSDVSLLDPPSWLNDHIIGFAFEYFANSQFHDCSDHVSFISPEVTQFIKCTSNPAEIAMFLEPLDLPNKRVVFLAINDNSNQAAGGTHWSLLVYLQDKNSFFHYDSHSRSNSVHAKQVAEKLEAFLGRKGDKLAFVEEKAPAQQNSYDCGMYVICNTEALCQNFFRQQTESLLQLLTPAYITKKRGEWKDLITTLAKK
The series is classed as functional.

Series [2] deals with T2, Caspase-3 (Homo sapiens, UniProt P42574).
T2 sequence (P42574 whole entry): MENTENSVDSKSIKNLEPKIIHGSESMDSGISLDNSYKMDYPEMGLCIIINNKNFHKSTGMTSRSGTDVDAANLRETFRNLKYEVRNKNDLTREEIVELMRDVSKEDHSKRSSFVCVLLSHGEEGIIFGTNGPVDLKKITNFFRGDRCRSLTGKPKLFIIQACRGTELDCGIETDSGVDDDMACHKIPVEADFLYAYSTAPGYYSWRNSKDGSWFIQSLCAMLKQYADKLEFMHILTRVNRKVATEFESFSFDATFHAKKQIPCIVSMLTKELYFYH
The series is classed as functional.

Series [3] addresses T3, Sentrin-specific protease 6 (Homo sapiens, UniProt Q9GZR1).
T3 sequence (Q9GZR1 whole entry): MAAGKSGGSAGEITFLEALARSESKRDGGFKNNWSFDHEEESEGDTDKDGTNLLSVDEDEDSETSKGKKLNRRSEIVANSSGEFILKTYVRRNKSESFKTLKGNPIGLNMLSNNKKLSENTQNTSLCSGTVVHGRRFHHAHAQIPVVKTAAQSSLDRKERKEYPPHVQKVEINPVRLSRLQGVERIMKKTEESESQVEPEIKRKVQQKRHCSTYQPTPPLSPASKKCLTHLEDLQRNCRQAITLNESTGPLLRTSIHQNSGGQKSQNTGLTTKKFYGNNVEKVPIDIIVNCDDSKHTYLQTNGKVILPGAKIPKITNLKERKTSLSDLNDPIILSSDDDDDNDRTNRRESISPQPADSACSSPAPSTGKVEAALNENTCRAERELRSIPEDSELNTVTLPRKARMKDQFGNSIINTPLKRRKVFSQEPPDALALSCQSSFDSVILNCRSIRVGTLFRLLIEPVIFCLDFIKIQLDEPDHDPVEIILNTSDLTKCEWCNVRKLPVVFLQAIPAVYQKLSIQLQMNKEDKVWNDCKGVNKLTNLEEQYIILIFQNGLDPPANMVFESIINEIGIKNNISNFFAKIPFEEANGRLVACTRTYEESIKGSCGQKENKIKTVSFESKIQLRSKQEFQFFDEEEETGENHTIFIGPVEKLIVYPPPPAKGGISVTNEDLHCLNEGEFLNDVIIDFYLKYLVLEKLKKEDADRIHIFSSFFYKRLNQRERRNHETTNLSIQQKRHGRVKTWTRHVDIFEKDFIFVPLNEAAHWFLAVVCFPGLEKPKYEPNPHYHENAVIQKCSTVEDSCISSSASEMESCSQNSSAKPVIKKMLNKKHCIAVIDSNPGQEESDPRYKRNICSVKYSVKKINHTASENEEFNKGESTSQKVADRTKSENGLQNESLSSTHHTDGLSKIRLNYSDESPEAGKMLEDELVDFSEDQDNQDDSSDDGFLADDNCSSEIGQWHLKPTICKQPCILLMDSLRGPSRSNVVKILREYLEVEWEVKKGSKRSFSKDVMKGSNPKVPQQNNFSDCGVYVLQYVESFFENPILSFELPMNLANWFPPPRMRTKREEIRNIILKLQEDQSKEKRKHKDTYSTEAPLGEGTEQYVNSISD
The series is classed as functional.

Series [4] concerns the target T4, Sentrin-specific protease 7 (Homo sapiens, UniProt Q9BQF6).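 Further: Luminescence-based dose-response confirmation of ultra-high-throughput screening hits, measuring inhibition of SENP7.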
T4 sequence (Q9BQF6 whole entry): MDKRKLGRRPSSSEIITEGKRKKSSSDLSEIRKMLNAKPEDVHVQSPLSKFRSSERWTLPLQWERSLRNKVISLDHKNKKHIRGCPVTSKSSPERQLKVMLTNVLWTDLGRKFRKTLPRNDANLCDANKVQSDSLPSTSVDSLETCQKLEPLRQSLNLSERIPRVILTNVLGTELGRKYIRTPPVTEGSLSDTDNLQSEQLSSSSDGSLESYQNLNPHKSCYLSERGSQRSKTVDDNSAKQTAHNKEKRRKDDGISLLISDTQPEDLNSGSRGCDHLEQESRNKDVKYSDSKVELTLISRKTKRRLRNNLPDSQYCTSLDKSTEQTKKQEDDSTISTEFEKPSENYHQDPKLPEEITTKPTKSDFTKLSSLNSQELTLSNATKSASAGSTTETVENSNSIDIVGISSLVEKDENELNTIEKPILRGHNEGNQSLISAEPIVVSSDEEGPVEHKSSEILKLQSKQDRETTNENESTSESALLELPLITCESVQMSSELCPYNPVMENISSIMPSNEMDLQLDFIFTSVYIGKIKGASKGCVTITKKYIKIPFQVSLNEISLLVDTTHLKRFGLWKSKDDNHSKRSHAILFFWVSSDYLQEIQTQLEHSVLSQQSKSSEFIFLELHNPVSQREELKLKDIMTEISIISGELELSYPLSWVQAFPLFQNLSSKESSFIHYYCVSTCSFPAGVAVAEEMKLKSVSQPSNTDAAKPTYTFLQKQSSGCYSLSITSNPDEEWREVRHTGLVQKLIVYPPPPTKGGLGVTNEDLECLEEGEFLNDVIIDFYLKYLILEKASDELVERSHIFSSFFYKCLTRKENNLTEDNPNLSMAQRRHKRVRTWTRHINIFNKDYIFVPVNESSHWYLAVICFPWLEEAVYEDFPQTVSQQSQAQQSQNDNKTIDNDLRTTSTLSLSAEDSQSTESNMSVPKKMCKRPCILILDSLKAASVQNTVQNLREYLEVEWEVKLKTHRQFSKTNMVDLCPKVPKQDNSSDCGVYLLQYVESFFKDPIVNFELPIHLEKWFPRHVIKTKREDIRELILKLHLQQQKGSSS
The series is classed as functional.

Series [5] deals with T5, Type-1 angiotensin II receptor (Homo sapiens, UniProt P30556).
T5 sequence (P30556 whole entry): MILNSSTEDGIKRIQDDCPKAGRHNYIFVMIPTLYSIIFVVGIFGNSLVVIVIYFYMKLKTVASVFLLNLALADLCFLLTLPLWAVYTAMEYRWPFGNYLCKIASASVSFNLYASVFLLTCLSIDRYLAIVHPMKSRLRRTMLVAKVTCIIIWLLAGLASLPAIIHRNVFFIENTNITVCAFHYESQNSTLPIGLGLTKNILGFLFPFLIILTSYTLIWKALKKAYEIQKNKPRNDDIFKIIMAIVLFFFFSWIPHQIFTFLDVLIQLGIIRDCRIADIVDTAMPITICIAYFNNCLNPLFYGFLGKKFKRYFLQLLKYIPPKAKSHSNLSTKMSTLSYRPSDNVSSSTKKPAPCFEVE
The experiment in a line: antagonism of angiotensin II type 1 receptor – cell-based, uHTS hits, selectivity assay for APJ receptor antagonist project, dose response (AID 463214).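 Further: antagonist potency against angiotensin II stimulated AT1 response.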 The series is classed as functional.

The target of series [6] is Beta-galactosidase (Escherichia coli, UniProt Q8VNN2). The experiment in a line: PubChem AID 485352. The series is classed as functional.
Sequence of Beta-galactosidase (Q8VNN2 whole entry): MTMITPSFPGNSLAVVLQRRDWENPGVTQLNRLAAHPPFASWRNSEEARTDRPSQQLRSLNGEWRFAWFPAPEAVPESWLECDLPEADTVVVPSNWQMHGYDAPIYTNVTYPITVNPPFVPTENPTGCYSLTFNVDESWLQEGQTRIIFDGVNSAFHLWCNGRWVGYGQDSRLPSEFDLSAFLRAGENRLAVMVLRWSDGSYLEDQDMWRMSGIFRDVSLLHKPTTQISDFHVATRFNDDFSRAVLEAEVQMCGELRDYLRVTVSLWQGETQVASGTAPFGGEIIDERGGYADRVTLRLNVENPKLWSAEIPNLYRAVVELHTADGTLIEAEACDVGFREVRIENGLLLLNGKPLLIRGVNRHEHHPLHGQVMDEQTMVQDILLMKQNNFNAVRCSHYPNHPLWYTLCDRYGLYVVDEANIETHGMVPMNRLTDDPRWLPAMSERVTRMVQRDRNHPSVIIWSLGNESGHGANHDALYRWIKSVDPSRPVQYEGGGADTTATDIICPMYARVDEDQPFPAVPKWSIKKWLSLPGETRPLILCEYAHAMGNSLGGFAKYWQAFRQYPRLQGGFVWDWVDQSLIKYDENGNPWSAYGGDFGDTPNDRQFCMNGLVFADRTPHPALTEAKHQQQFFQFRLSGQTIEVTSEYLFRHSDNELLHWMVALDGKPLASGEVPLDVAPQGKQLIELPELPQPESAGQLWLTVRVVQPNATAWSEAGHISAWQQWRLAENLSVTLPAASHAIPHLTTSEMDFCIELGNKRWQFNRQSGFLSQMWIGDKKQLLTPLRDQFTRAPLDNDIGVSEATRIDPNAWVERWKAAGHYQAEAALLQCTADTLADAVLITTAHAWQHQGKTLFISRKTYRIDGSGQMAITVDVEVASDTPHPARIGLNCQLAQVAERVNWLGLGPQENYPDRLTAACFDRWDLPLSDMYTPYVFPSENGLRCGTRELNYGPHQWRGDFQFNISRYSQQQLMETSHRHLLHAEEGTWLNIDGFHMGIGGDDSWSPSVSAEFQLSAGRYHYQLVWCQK
In series [7] the target is Cytochrome P450 2C9 (Homo sapiens, UniProt P11712).
Sequence of Cytochrome P450 2C9 (P11712 whole entry): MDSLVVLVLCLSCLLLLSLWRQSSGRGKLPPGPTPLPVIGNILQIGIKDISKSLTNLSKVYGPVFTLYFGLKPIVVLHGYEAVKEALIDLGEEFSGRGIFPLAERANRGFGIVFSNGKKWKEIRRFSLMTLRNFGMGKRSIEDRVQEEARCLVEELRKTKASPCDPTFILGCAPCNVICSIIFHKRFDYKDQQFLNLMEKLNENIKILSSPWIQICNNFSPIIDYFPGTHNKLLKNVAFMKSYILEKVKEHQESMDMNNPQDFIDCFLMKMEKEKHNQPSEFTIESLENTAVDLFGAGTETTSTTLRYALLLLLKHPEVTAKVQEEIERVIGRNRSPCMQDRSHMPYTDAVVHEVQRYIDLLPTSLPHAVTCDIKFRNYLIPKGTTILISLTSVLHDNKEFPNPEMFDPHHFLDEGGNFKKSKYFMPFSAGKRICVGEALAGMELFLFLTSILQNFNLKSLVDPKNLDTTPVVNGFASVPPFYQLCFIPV
In series [8] the target is T6, Cytochrome P450 1A2 (Homo sapiens, UniProt P05177).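 Further: PubChem cytochrome P450 panel assay, CYP1A2 panel member.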
T6 sequence (P05177 whole entry): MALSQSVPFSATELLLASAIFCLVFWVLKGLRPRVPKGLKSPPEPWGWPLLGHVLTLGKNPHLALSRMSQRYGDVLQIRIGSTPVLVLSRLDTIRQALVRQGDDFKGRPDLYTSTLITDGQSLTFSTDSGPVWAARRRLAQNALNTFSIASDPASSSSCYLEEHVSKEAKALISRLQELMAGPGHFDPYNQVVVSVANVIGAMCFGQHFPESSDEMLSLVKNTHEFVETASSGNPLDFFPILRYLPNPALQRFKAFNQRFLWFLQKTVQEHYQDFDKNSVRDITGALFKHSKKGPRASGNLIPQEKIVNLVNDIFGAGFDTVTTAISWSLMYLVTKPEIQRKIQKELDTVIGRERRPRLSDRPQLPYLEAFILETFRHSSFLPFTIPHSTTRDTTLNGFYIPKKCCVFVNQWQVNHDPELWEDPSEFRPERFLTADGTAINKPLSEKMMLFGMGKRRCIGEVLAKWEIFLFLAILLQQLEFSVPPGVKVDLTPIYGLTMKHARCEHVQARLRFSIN

In series [9] the target is DNA dC->dU-editing enzyme APOBEC-3G (Homo sapiens, UniProt Q9HC16). The series is classed as functional.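 Further: Dose-response counterscreen measuring inhibition of APOBEC3G DNA deaminase activity, run while confirming APOBEC3A inhibitors.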
Sequence of DNA dC->dU-editing enzyme APOBEC-3G (Q9HC16 whole entry): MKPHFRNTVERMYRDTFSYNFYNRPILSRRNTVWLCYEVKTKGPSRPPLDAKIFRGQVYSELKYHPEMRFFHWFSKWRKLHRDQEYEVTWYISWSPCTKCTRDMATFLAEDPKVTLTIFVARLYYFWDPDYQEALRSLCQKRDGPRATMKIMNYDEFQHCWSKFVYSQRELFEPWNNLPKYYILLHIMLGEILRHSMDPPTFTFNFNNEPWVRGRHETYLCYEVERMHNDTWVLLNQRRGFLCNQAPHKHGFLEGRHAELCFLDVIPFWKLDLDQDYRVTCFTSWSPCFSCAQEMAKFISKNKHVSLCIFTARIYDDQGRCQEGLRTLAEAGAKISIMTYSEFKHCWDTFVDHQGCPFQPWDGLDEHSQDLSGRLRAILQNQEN
Series [10] has as its target DNA dC->dU-editing enzyme APOBEC-3A (Homo sapiens, UniProt P31941). The experiment in a line: Dose Response confirmation of small molecule APOBEC3A DNA Deaminase Inhibitors via a fluorescence-based single-stranded DNA deaminase assay. [Related pubchem assays (depositor defined):AID493011, AID493024]. The series is classed as functional.
The target of series [11] is T7, Carboxy-terminal domain RNA polymerase II polypeptide A small phosphatase 1 (Homo sapiens, UniProt Q9GZU7).
T7 sequence (Q9GZU7 whole entry): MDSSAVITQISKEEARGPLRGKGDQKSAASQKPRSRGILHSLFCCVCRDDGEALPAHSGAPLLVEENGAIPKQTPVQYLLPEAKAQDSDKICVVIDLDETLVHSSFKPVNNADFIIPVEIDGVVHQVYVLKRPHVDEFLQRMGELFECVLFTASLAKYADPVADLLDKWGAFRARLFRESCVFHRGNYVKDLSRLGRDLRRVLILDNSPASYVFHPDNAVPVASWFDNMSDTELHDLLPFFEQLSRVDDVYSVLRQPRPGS
The series can be described thus: CTDSP1 inhibitors, concentration-response, biochemical, absorbance readout, ultra-high-throughput screen actives (AID 540297). The series is classed as functional.

Series [12] concerns the target Voltage-dependent T-type calcium channel subunit alpha-1H (Homo sapiens, UniProt O95180). The series is classed as functional.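 Further: channel activity triggered by adding a high calcium stimulation buffer.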

Sequence of Voltage-dependent T-type calcium channel subunit alpha-1H (O95180 whole entry): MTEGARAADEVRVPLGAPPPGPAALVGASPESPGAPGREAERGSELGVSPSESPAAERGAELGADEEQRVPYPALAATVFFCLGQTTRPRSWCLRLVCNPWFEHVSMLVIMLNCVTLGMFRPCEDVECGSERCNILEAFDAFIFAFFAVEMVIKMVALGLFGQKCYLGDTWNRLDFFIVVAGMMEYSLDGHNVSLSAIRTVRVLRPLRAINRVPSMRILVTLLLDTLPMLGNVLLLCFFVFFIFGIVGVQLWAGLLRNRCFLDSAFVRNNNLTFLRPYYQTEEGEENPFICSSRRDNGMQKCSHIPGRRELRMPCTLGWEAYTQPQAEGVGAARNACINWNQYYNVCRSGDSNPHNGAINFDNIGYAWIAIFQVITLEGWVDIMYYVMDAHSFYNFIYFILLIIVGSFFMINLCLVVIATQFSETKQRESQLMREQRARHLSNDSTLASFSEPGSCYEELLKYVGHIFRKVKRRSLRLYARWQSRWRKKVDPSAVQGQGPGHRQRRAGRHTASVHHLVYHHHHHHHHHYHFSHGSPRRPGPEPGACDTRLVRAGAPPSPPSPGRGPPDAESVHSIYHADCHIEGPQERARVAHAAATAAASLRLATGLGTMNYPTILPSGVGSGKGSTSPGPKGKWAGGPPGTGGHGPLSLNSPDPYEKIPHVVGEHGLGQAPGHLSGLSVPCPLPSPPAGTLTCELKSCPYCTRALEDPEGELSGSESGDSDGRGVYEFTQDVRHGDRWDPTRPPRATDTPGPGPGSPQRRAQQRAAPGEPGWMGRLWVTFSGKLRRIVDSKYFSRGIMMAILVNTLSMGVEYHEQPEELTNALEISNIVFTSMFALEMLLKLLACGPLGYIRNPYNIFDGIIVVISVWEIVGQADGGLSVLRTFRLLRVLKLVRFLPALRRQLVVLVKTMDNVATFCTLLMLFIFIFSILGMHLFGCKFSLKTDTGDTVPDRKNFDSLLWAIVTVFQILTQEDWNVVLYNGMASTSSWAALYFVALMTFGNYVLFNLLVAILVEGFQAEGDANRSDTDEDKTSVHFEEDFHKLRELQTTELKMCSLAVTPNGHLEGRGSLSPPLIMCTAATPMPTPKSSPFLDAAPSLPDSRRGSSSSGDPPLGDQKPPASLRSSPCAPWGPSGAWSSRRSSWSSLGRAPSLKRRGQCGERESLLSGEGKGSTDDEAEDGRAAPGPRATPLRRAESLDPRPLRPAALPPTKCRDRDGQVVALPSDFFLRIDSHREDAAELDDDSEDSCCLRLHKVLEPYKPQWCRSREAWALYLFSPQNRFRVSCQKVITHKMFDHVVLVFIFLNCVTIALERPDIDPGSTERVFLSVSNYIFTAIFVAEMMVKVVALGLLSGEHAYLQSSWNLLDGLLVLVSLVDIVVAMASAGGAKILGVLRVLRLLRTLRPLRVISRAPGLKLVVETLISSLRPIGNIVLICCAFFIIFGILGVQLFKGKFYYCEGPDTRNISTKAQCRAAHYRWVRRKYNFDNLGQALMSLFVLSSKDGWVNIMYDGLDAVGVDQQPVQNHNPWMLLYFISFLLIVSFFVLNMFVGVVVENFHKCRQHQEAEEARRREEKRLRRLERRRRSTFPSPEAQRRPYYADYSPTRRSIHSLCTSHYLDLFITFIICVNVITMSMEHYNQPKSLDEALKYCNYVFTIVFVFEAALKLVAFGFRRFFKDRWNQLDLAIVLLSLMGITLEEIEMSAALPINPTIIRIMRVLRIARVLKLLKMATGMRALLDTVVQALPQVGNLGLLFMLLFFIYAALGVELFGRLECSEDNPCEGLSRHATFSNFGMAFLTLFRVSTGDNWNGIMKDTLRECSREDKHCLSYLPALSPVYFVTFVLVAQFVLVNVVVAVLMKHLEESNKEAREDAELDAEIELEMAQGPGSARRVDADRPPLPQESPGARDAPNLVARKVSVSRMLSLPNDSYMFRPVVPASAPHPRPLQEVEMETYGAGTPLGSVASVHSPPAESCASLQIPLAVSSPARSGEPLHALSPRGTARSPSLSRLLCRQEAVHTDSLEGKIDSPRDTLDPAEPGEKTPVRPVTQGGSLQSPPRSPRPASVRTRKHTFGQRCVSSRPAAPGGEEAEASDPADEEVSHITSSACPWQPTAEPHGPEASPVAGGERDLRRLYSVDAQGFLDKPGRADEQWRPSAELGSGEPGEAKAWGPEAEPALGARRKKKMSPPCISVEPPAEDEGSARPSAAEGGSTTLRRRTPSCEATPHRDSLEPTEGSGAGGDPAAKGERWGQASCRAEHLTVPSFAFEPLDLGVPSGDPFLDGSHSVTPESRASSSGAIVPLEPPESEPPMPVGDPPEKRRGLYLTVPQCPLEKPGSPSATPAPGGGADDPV
Sequence of DNA dC->dU-editing enzyme APOBEC-3A (P31941 whole entry, the tested form may be a part): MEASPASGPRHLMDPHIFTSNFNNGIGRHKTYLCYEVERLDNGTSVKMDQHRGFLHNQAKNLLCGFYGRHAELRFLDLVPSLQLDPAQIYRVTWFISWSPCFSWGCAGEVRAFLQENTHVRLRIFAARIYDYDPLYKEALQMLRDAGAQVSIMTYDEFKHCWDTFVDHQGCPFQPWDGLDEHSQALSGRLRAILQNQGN

What is called IC50 is the point on the concentration scale where inhibition reaches its midpoint. As to `Nn1c(SCc2ccccc2)nc2c(cnn2-c2ccccc2)c1=O`, the IC50 is > 100 µM (inactive) in series [1], 36.1 µM (active) in series [2], > 100 µM (inactive) in series [3] and 11.4 µM (active) in [4].
As usually defined, the EC50 is the concentration needed to bring the measured effect to its halfway point. As to `Cc1ccc2nc(C)cc(C(=O)OCC(=O)c3ccc(Cl)c([N+](=O)[O-])c3)c2c1`, the IC50 in series [5] is 13.2 µM (active). Also, in series [6], the EC50 was > 40 µM (inactive).
By AC50 is commonly meant the concentration giving half of the maximal activity seen. Regarding `Cc1cc(C)cc(-n2nnnc2SCC(=O)Nc2nc(-c3ccc(Cl)cc3)cs2)c1`, the AC50 result is “inconclusive” in series [7] and 7.08 µM (inconclusive) in series [8].
On to `Cc1cccc(NC2=c3cccc(Cl)c3=NC2=O)c1`, for which the half-inhibitory concentration (IC50) in series [5] is > 40 µM (not active). Moreover, the EC50 in series [6] is > 40 µM (inactive).
Take `C[N+]1(C2CCC3CCCC2C3O)CCCCC1` (stereo not drawn): the IC50 in series [9] is 2.69 µM (active); in series [10], 2.42 µM (active); in [11], 6.61 µM (active).
Consider `CCN(CC)c1ccc(/C=C/c2nc3ccccc3s2)cc1`, for which, in series [12], the EC50 is 6.85 µM (active). Also, in [7], the AC50 entry is on record as “inconclusive”.
Turning to `O=C(Cn1cc(SCc2ccc(F)cc2)c2ccccc21)N1CCOCC1`, the concentration for half-maximal inhibition (IC50) in series [1] is 23.2 µM (active); in series [2], 21.1 µM (active); in [3] it was 21.1 µM (active); in [4] it was 6.95 µM (active).
For `Nc1c(N2CCCC2)c2ccccc2oc1=O`, the half-maximal inhibitory concentration (IC50) in series [5] was 13.7 µM (active). The EC50 in series [6] was > 40 µM (inactive).
Regarding `O=C(CO)N/N=C/c1ccccc1F`, the AC50 result was “inconclusive” in [7] and 25.1 µM (inconclusive) in series [8].
